Columns and labels:
[1] = system: premature senescent vascular endothelial cells (HUVEC) by doxorubicin; assay: SAβG activity staining, doxorubicin-induced premature senescent HUVEC; format: cell-based, human; details: 100 nM, 4 days; compared to DMSO-treated group; p<0.01; FIG. 3A, 3B
Description: (§1) Each cell was treated in a serum-free culture solution containing doxorubicin (0.5 μM) for 4 hours. After washing the cells with a serum-free culture solution, the cells were cultured for 4 days in a culture solution containing 10% FBS, and then cellular aging was confirmed by measuring the level of senescence by staining with senescence-associated beta galactosidase.
(§2) After each sample was dissolved in DMSO, young cells, replicative senescent cells and senescent cells in which premature aging was induced by treating with doxorubicin were treated with 100 nM salinomycin, 100 nM rapamycin, 100 nM ABT263. After incubation for 4 days in a 37° C., 5% CO2 incubator, the degree of cell survival was confirmed by CCK-8 analysis, the degree of cellular aging was confirmed by senescence-associated β-galactosidase (SAβG) staining, p53 and p16 protein expression analysis.
(§3) The cells were washed with 1× phosphate buffer solution, and fixed with a phosphate buffer solution containing 3.7% (v/v) paraformaldehyde. After adding 1 mg/ml 5-bromo-4-chloro-3-indolyl-β-D-galactoside, 40 mM citric acid-sodium phosphate (pH 6.0), 5 mM potassium ferricyanide, 5 mM potassium ferrocyanide, 150 mM NaCl, and 2 mM MgCl2 solution, it was reacted at 37° C. for 18 hours. It was stained with eosin as a control stain and cells stained blue in the cytoplasm were identified using an optical microscope. […]

[2] = system: premature senescent renal tubular cells (HK2) by doxorubicin; assay: SAβG activity staining, doxorubicin-induced premature senescent HK2 cells; format: cell-based, human; details: 100 nM, 4 days; compared to DMSO-treated group; FIG. 6A-6C
Description: as §1, §2, §3

[3] = system: premature senescent vascular endothelial cells (HUVEC) by doxorubicin; assay: CCK-8 cell survival, doxorubicin-induced premature senescent HUVEC; format: cell-based, human; details: 100 nM, 4 days; compared to DMSO-treated group; FIG. 3C
Description: as §1, §2
(§4) Young cells (1×10^3 cells/well) or senescent cells (2×10^3 cells/well) were dispensed into a 96-well plate, and cultured overnight in a 37° C., 5% CO2 incubator. Salinomycin, ABT263 and rapamycin were treated at each concentration, and then incubated for 4 days in a 37° C., 5% CO2 incubator. […] Then, the absorbance was measured at 450 nm using a Microplate reader.
(§5) The degree of cell survival was expressed as a relative value for the absorbance of the control group treated with only DMSO as 100%. […]

[4] = system: premature senescent retinal pigmented epithelial cells (ARPE) by doxorubicin; format: cell-based, human
Description: as §1
Cytotoxicity against young and senescent cells was investigated with a lactate dehydrogenase (LDH) activity kit (Dojindo Molecular Technologies Inc.). Young cells (1×10^3 cells/100 μl/well) or senescent cells (2×10^3 cells/100 μl/well) were dispensed into a 96-well plate, and then cultured overnight in a 37° C., 5% CO2 incubator.
Salinomycin, ABT263 and rapamycin were treated at each concentration, and then incubated for 4 days in a 37° C., 5% CO2 incubator. After transferring the cell culture solution to a 1.5 ml tube, it was centrifuged at 4° C. and 12,000 rpm. 100 μl of the supernatant was dispensed into a 96-well plate, and 100 μl of the LDH measurement solution was added to each well, followed by reaction in a CO2 incubator for 30 minutes. 50 μl of the LDH reaction stop solution was added, and absorbance was measured at 490 nm using a microplate reader. The level of LDH activity was expressed as a relative value based on the absorbance of the control group treated with only DMSO.

[5] = system: replicative senescent vascular endothelial cells (HUVEC); assay: CCK-8 cell survival, replicative senescent HUVEC; format: cell-based, human; details: according to concentration of salinomycin; FIG. 4C
Description: (§6) After dispensing 2×10^5 cells in a 100 mm culture dish, they were cultured in a 37° C., 5% CO2 incubator. When the cells grew to 80-90% in the culture dish, the cells were removed by treatment with trypsin-EDTA, and the number of cells was measured, and the cell population doubling time (PDT) was measured.
(§7) By successively subculturing the cells in the same process as described above, replication aging was induced. PDT of young fibroblasts was 36 hours, PDT of replicative senescent fibroblasts was 12 days, PDT of young vascular endothelial cells was 24 hours, and PDT of replicative senescent vascular endothelial cells was 7 days.
(§8) After each sample was dissolved in DMSO, young cells, replicative senescent cells and senescent cells in which premature aging was induced by treating with doxorubicin were treated with 100 nM salinomycin, 100 nM rapamycin, 100 nM ABT263. […]
(§9) Young cells (1×10^3 cells/well) or senescent cells (2×10^3 cells/well) were dispensed into a 96-well plate, and cultured overnight in a 37° C., 5% CO2 incubator. […] Then, the absorbance was measured at 450 nm using a Microplate reader.
(§10) The degree of cell survival was expressed as a relative value for the absorbance of the control group treated with only DMSO as 100%.

[6] = system: premature senescent human fibroblasts induced by doxorubicin (HDF); assay: SAβG activity staining, doxorubicin-induced premature senescent human fibroblasts; format: cell-based; details: 100 nM, 4 days; compared to DMSO-treated group; FIG. 1A, 1B
Description: as §1, §2, §3

[7] = system: replicative senescent human fibroblasts (HDF); assay: SAβG activity staining, replicative senescent human fibroblasts; format: cell-based; details: increasing concentration of salinomycin, senescent cells; FIG. 2A, 2B
Description: as §6, §7, §2
The cells were washed with 1× phosphate buffer solution, and fixed with a phosphate buffer solution containing 3.7% (v/v) paraformaldehyde. […]

[8] = system: premature senescent human fibroblasts induced by doxorubicin (HDF); assay: CCK-8 cell survival, doxorubicin-induced premature senescent human fibroblasts; format: cell-based; details: 100 nM, 4 days; compared to DMSO-treated group; p<0.01; FIG. 1C
Description: as §1, §2, §4, §5

[9] = system: replicative senescent human fibroblasts (HDF); assay: CCK-8 cell survival, replicative senescent human fibroblasts; format: cell-based; details: replicative senescent cells, increasing concentration of salinomycin; FIG. 2A, 2D
Description: as §6, §7, §8, §9, §10

`CC[C@@H](C(=O)[C@@H](C)[C@@H](O)[C@H](C)[C@@H]1O[C@@H]([C@@H](CC)C(=O)O)CC[C@@H]1C)[C@H]1O[C@]2(C=C[C@@H](O)[C@]3(CC[C@@](C)([C@H]4CC[C@](O)(CC)[C@H](C)O4)O3)O2)[C@H](C)C[C@@H]1C` [salinomycin] was tested, and the SAβG activity staining [1] was “significantly decreased”, the SaβG activity [2] was “no change” and the “cell survival (CCK-8)” value [3] was “no difference”. For the same compound, the “cytotoxicity by LDH activity” value [4] was “significantly increased”, the “cell survival (CCK-8)” value [5] was “did not affect” and the SAβG activity [6] was “significantly reduced”. For the same compound, the SAβG activity [7] was “decreased in senescent cells in a concentration-dependent manner”, the “cell survival (CCK-8)” value [8] was “decreased significantly” and the “cell survival (CCK-8)” value [9] was “no change”.

— patent US12083093B2, “Composition for preventing or treating cellular senescence-related diseases comprising salinomycin as effective component” (RESEARCH COOPERATION FOUNDATION OF YEUNGNAM UNIVERSITY, priority 2018, dated 2024)
